{"source": "patent US20250213649A1", "about": "“PEPTIDE HAVING ANTI-INFLAMMATORY AND ANTI-FIBROTIC ACTIVITIES AND USE THEREOF” (CAREGEN CO., LTD., priority 2022, published 2025)", "test_system": "A549 cells", "test": "Western blotting of LPS-induced inflammatory cytokine/signaling proteins, A549 cells", "type": "cell-based, human", "details": "LPS 5 μg/ml, peptide 10, 50, 100, 500 μM, 24 hours, Western blot (FIG. 4a, 4b)", "description": "A549 cells (human alveolar basal epithelial cells) were seeded at 3×10^5 cells/well in a 6-well plate and used in the experiment. After culturing for 1 day with a culture medium containing 10% FBS, the culture medium was replaced with a culture medium without containing FBS to induce starvation for 4 hours. Cells of a normal group without being treated with any substances, a group treated with LPS (5 μg/ml) (Sigma Aldrich) (negative control group), groups treated with LPS (5 μg/ml) and the peptide of Production Example 1 (10, 50, 100, 500 μM), and a group treated with LPS (5 μg/ml) and 10 μM of Dexamethasone (DEX) (positive control group) were treated with active substances and drugs respectively and then cultured for 24 hours. The cultured cells of each treatment group and control group were lysed by adding a lysis buffer, and then centrifugation was carried out at 4° C. at 12,000 rpm for 30 minutes to obtain proteins, which were subsequently quantified using a BCA Protein Assay kit (Sigma). The proteins were subjected to SDS-PAGE (sodium dodecyl sulfate-polyacrylamide gel electrophoresis) and then subjected to electrotransfer to a membrane. The membrane to which the proteins were attached was treated with 5% skim milk for blocking and then subjected to a reaction with a primary antibody overnight at 4° C. After washing with PBS-T, the membrane was subjected to a reaction with a secondary antibody at room temperature for 1 hour, washed again with PBS-T, and then visualized by a Western detection reagent (Elpis Biotech, Daejeon, Korea) using Gel Doc (Bio-Rad, Hercules, CA, USA). The antibodies used in the experiment are as follows. An Anti-IL-1β antibody: (Cell signaling technology (CST), USA), an anti-IL-6 antibody: (Santa Cruz Biotechnology, USA), an anti-COX2 antibody: (Santa Cruz Biotechnology, USA), an anti-Phospho-PI3K antibody: (Cell signaling technology (CST), USA), an anti-Phospho-AKT antibody: (Cell signaling technology (CST), USA), an anti-Phospho-ERK antibody: (Cell signaling technology (CST), USA), and an anti-β-Actin antibody: (Santa Cruz Biotechnology, USA)."}
{"sequence": "KYLLVHRPYYRR [peptide of Production Example 1]", "values": [{"measurement": "expression of COX2 (protein)", "result": "decreased the expression levels of proteins in a concentration-dependent manner"}, {"measurement": "expression of IL-1β (protein)", "result": "decreased the expression levels of proteins in a concentration-dependent manner"}, {"measurement": "expression of IL-6 (protein)", "result": "decreased the expression levels of proteins in a concentration-dependent manner"}, {"measurement": "expression of Phospho-AKT", "result": "decreased the expression levels of proteins in a concentration-dependent manner"}, {"measurement": "expression of Phospho-ERK", "result": "decreased the expression levels of proteins in a concentration-dependent manner"}, {"measurement": "expression of Phospho-PI3K", "result": "decreased the expression levels of proteins in a concentration-dependent manner"}]}
